In the supplement of paper PMC10307832:

Key:
Test in all cases: relative viability (nuclei count vs DMSO), 5 days (fraction); higher = more cells survive
ABC-1 = test system: ABC-1
Summary of the method: (§1)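 Relative viability divides the nuclei count in treated wells by that in vehicle wells. Lung cancer cell lines were seeded in 1536-well plates, dosed by pin tool the next day, and fixed and stained after 5 days in one step with final 0.05% Triton X-100, 1% formaldehyde and 1 ug/ml Hoechst. Dosing was a single drug or a fixed anchor-drug dose plus five library-drug doses (not always all listed) in √10 steps, and values are medians of duplicate plates imaged at 4×.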

COR-L23 = test system: COR-L23
Summary of the method: as §1

ChaGo-K-1 = test system: ChaGo-K-1
Summary of the method: as §1

NCI-H1437 = test system: NCI-H1437
Summary of the method: as §1

NCI-H1623 = test system: NCI-H1623
Summary of the method: as §1

NCI-H1648 = test system: NCI-H1648
Summary of the method: as §1

NCI-H1651 = test system: NCI-H1651
Summary of the method: as §1

SK-MES-1 = test system: SK-MES-1
Summary of the method: as §1

SW 1573 = test system: SW 1573
Summary of the method: as §1

SMILES: O=c1cc(N2CCOCC2)oc2c(-c3cccc4c3sc3ccccc34)cccc12 + COc1cccc2cc(-c3nc([C@H]4CC[C@H](C(=O)O)CC4)n4ncnc(N)c34)[nH]c12 [OSI-027] (partner 0.5 µM)
- relative viability (ABC-1; first compound 0.01 µM): 0.483
- relative viability (ABC-1; first compound 0.03162 µM): 0.436
- relative viability (ABC-1; first compound 0.1 µM): 0.557
- relative viability (ABC-1; first compound 0.3162 µM): 0.523
- relative viability (ABC-1; first compound 1 µM): 0.501
- relative viability (COR-L23; first compound 0.01 µM): 0.748
- relative viability (COR-L23; first compound 0.03162 µM): 0.774
- relative viability (COR-L23; first compound 0.1 µM): 0.748
- relative viability (COR-L23; first compound 0.3162 µM): 0.796
- relative viability (COR-L23; first compound 1 µM): 0.834
- relative viability (ChaGo-K-1; first compound 0.01 µM): 0.488
- relative viability (ChaGo-K-1; first compound 0.03162 µM): 0.681
- relative viability (ChaGo-K-1; first compound 0.1 µM): 0.363
- relative viability (ChaGo-K-1; first compound 0.3162 µM): 0.706
- relative viability (ChaGo-K-1; first compound 1 µM): 0.628
- relative viability (NCI-H1437; first compound 0.01 µM): 0.907
- relative viability (NCI-H1437; first compound 0.03162 µM): 0.848
- relative viability (NCI-H1437; first compound 0.1 µM): 0.913
- relative viability (NCI-H1437; first compound 0.3162 µM): 0.944
- relative viability (NCI-H1437; first compound 1 µM): 0.935
- relative viability (NCI-H1623; first compound 0.01 µM): 0.45
- relative viability (NCI-H1623; first compound 0.03162 µM): 0.477
- relative viability (NCI-H1623; first compound 0.1 µM): 0.362
- relative viability (NCI-H1623; first compound 0.3162 µM): 0.407
- relative viability (NCI-H1623; first compound 1 µM): 0.429
- relative viability (NCI-H1648; first compound 0.01 µM): 0.244
- relative viability (NCI-H1648; first compound 0.03162 µM): 0.253
- relative viability (NCI-H1648; first compound 0.1 µM): 0.239
- relative viability (NCI-H1648; first compound 0.3162 µM): 0.235
- relative viability (NCI-H1648; first compound 1 µM): 0.235
- relative viability (NCI-H1651; first compound 0.01 µM): 0.593
- relative viability (NCI-H1651; first compound 0.03162 µM): 0.704
- relative viability (NCI-H1651; first compound 0.1 µM): 0.668
- relative viability (NCI-H1651; first compound 0.3162 µM): 0.654
- relative viability (NCI-H1651; first compound 1 µM): 0.636
- relative viability (SK-MES-1; first compound 0.01 µM): 0.613
- relative viability (SK-MES-1; first compound 0.03162 µM): 0.685
- relative viability (SK-MES-1; first compound 0.1 µM): 0.531
- relative viability (SK-MES-1; first compound 0.3162 µM): 0.633
- relative viability (SK-MES-1; first compound 1 µM): 0.579
- relative viability (SW 1573; first compound 0.01 µM): 0.675
- relative viability (SW 1573; first compound 0.03162 µM): 0.709
- relative viability (SW 1573; first compound 0.1 µM): 0.678
- relative viability (SW 1573; first compound 0.3162 µM): 0.615
- relative viability (SW 1573; first compound 1 µM): 0.737

SMILES: COc1nc(C)cnc1NS(=O)(=O)c1cccnc1-c1ccc(-c2nnco2)cc1 [Zibotentan] + Cc1cc(Nc2cc(N3CCN(C)CC3)nc(Sc3ccc(NC(=O)C4CC4)cc3)n2)n[nH]1 [Tozasertib] (partner 0.1 µM)
- relative viability (ABC-1; first compound 0.08 µM): 0.175
- relative viability (ABC-1; first compound 0.253 µM): 0.163
- relative viability (ABC-1; first compound 0.8 µM): 0.193
- relative viability (ABC-1; first compound 2.53 µM): 0.201
- relative viability (COR-L23; first compound 0.08 µM): 0.218
- relative viability (COR-L23; first compound 0.253 µM): 0.216
- relative viability (COR-L23; first compound 0.8 µM): 0.224
- relative viability (COR-L23; first compound 2.53 µM): 0.337
- relative viability (ChaGo-K-1; first compound 0.08 µM): 0.208
- relative viability (ChaGo-K-1; first compound 0.253 µM): 0.218
- relative viability (ChaGo-K-1; first compound 0.8 µM): 0.21
- relative viability (ChaGo-K-1; first compound 2.53 µM): 0.24
- relative viability (NCI-H1437; first compound 0.08 µM): 0.421
- relative viability (NCI-H1437; first compound 0.253 µM): 0.378
- relative viability (NCI-H1437; first compound 0.8 µM): 0.38
- relative viability (NCI-H1437; first compound 2.53 µM): 0.448
- relative viability (NCI-H1623; first compound 0.08 µM): 0.464
- relative viability (NCI-H1623; first compound 0.8 µM): 0.43
- relative viability (NCI-H1623; first compound 2.53 µM): 0.427
- relative viability (NCI-H1648; first compound 0.08 µM): 0.499
- relative viability (NCI-H1648; first compound 0.253 µM): 0.403
- relative viability (NCI-H1648; first compound 0.8 µM): 0.47
- relative viability (NCI-H1648; first compound 2.53 µM): 0.576
- relative viability (NCI-H1651; first compound 0.08 µM): 0.678
- relative viability (NCI-H1651; first compound 0.253 µM): 0.552
- relative viability (NCI-H1651; first compound 0.8 µM): 0.767
- relative viability (NCI-H1651; first compound 2.53 µM): 0.717
- relative viability (SK-MES-1; first compound 0.08 µM): 0.999
- relative viability (SK-MES-1; first compound 0.253 µM): 0.809
- relative viability (SK-MES-1; first compound 0.8 µM): 0.874
- relative viability (SK-MES-1; first compound 2.53 µM): 0.877
- relative viability (SW 1573; first compound 0.08 µM): 0.229
- relative viability (SW 1573; first compound 0.8 µM): 0.257
- relative viability (SW 1573; first compound 2.53 µM): 0.221
